The values below come from patent US20140350029A1 (DAINIPPON SUMITOMO PHARMA CO., LTD., priority 2011, published 2014).

Entries after “also recorded” stand apart in the source; their conditions may differ.

Series [1] concerns the target T1, Dopamine D1 receptor (Rattus norvegicus, UniProt P18901).
T1 construct: Membranes from male Wistar rat brain tissues; from tissue; host or cells: male Wistar rat brain
Put plainly: In vitro receptor binding, dopamine D1 (rat). The following applies: read-out: Binding Affinities (Ki; nM) Dopamine D1. The method, then:
(§1) In vitro binding studies were carried out according to the procedures well-established in the art. Membranes from male Wistar rat brain tissues or cells expressing cloned human receptors were prepared under assay conditions summarized in Ishibashi, T. et al. (Journal of Pharmacology and Experimental Therapeutics (2010)). Functional assays were carried out to analyze the binding affinity and effect on receptor function for dopamine D1-D4 receptor subtypes, serotonin 5-HT1A, 5-HT2A, 5-HT2C, 5-HT6, 5-HT7, norepinephrine α1, α2A, α2C, histamine H1 receptors, and muscarinic M1 receptors.

The target in series [2] is T2, Dopamine D4 receptor (Homo sapiens, UniProt P21917).
T2 sequence (P21917 1-419): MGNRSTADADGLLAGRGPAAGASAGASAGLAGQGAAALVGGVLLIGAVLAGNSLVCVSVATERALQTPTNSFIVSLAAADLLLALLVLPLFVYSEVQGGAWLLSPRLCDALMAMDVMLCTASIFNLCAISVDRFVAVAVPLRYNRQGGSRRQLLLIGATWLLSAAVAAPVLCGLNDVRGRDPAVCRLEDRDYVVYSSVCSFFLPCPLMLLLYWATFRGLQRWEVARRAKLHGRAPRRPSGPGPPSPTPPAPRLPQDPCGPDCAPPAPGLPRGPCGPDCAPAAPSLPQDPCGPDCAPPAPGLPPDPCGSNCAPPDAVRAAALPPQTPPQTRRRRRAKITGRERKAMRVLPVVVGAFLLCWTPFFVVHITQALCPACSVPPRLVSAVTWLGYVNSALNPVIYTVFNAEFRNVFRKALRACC
Put plainly: In vitro receptor binding, dopamine D4. The following applies: cloned cells expressing human receptors; read-out: Binding Affinities (Ki; nM) Dopamine D4.

The target of series [3] is T3, Serotonin 5-HT2c receptor (Sus scrofa, UniProt K7GSR7).
T3 sequence (K7GSR7 1-457): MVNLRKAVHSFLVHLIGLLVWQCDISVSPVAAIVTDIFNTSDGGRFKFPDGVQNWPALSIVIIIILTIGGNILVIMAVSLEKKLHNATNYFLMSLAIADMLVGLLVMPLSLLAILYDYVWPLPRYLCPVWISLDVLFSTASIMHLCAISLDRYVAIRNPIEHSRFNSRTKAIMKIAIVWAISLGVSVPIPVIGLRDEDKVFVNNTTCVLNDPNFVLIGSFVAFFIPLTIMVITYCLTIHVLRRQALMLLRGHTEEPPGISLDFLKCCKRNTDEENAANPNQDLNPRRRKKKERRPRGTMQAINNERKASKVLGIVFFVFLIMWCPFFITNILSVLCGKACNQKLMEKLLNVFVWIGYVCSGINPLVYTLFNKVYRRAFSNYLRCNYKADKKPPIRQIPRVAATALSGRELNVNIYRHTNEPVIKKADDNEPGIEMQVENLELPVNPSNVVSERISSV
The format is binding, porcine. The method, then:
as §1

Series [4] deals with Norepinephrine α1 receptor. Put plainly: In vitro receptor binding, norepinephrine α1 (rat).
In series [5] the target is Histamine H1 receptor (Cavia porcellus, UniProt P31389). As to the kind of experiment: In vitro receptor binding, histamine H1 (guinea pig).
The nature of series [6]: Metabolic effects, 1-year lurasidone therapy. As to conditions: 40-120 mg/day, 1-year study, patients with schizophrenia. Type of series: in vivo, human. The method, then: Changes in weight, total cholesterol, triglycerides, fasting glucose, and prolactin were measured and compared to baseline levels.
Series [7] concerns patients with schizophrenia. Put plainly: PANSS and BPRS scores, 1-year lurasidone therapy. The following applies: 40-120 mg/day, over a 1-year period. The format is in vivo, human.
Series [8] is described as follows: Short-term (6-week) and long-term (6-month, 12-month) metabolic safety study. Type of series: in vivo, human. The method, then: The mean change in weight and BMI was assessed at the LOCF endpoint for the short-term study. […] FIG. 6 summarizes the mean change in weight and BMI in observed cases after 6 months and 12 months of treatment
The median change in total cholesterol and triglycerides, and glucose and HbA1c, was also assessed for both the short-term and long-term studies.

The nature of series [9]: Lurasidone adjunctive to lithium or divalproex for bipolar I depression, 6-week study, safety and tolerability. Type of series: in vivo, human. The following applies: adjunctive to Li/VPA. The method, then: Therapeutic blood levels of Li or VPA had to be maintained for ≧28 days prior to randomization.
The total duration of treatment was 6 weeks.
Patients were required to continue treatment with lithium or divalproex during the screening period and throughout the study. Dose adjustments of lithium or divalproex were permitted during the trial to ensure that trough serum levels remained within the protocol-specified range (0.6 mEq/L to 1.2 mEq/L for lithium or […] to 125 μg/mL for divalproex).
This study also evaluated the safety and tolerability of using lurasidone in combination with lithium or divalproex. Patients were evaluated for: (1) Adverse effects, discontinuation due to adverse effects (AEs), and serious adverse effects (SAEs), (2) Movement disorders as assessed by Abnormal Involuntary Movement Scale (AIMS), Barnes Akathisia Rating Scale (BARS), and the Simpson-Angus Scale (SAS), and (3) Weight, laboratory measures, vital signs, and electrocardiograms (ECGs).

For series [10], the target named is T4, serotonin 5-HT1A receptor (Homo sapiens, UniProt P08908).
T4 sequence (P08908 1-422): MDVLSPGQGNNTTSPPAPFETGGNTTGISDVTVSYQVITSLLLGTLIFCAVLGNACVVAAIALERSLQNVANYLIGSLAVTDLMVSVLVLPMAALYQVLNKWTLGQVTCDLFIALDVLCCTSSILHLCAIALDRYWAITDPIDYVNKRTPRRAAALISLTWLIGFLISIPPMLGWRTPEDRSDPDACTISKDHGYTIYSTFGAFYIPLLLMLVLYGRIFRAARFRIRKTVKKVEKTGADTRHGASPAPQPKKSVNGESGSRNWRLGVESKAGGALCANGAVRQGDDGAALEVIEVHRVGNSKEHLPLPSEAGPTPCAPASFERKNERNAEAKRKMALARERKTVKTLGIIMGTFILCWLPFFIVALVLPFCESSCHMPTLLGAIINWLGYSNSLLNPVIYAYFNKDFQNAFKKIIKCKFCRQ
The following applies: background statement; cited from earlier work.

The target of series [11] is 5-HT2A receptor (Homo sapiens, UniProt P28223). The following applies: background statement; cited from earlier work.
Chain of 5-HT2A receptor (P28223 whole entry): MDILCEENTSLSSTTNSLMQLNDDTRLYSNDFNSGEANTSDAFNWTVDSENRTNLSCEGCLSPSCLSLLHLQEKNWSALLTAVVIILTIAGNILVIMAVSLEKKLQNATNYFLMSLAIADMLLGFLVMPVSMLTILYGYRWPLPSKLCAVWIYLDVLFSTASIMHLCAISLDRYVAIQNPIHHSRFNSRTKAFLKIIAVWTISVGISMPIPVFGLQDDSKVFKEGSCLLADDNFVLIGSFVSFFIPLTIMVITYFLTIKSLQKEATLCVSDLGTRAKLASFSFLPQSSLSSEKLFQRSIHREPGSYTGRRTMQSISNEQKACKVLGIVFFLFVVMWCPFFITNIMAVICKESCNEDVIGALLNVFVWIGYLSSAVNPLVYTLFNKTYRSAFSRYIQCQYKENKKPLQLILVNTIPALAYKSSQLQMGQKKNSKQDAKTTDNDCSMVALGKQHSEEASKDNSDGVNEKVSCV

Chain of Histamine H1 receptor (P31389 whole entry): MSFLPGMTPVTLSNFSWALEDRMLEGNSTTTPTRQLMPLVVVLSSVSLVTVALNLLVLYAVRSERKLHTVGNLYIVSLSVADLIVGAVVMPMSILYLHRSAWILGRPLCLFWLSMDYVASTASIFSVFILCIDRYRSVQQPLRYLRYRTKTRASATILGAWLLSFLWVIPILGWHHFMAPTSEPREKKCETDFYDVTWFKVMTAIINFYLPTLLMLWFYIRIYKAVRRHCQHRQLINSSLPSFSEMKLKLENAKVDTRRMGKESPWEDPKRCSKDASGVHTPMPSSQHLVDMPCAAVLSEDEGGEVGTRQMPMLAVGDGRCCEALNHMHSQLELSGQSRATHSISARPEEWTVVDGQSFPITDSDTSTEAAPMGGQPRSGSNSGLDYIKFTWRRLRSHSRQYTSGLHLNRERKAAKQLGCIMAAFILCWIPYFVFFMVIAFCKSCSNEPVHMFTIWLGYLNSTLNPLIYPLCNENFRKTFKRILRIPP
T1 sequence (P18901 whole entry): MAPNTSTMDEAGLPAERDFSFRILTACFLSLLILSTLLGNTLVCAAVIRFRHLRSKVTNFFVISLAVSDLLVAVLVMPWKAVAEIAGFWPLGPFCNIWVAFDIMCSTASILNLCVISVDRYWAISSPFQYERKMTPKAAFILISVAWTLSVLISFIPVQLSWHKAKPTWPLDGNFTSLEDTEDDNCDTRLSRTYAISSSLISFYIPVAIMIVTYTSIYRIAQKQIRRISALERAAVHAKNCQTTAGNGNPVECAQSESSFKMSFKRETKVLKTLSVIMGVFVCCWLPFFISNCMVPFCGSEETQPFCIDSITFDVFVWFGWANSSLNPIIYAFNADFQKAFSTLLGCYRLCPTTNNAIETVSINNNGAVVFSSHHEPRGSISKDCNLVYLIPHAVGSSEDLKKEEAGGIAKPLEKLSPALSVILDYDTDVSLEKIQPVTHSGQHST

As to `O=C1[C@@H]2[C@H]3CC[C@H](C3)[C@@H]2C(=O)N1C[C@@H]1CCCC[C@H]1CN1CCN(c2nsc3ccccc23)CC1` [Lurasidone], the inhibition constant Ki (usually the equilibrium dissociation constant of an inhibitor or competing ligand from its target) is 262 nM in [1]; 29.7 nM in [2]; 415 nM in series [3] (porcine, read-out: Binding Affinities (Ki; nM) Serotonin 5-HT2c); 47.9 nM in [4] (rat, read-out: Binding Affinities (Ki; nM) Norepinephrine α1); more than 1000 nM in [5] (guinea pig, read-out: Binding Affinities (Ki; nM) Histamine H1). Further, the “binding affinity for serotonin 5-HT2C receptor (in words)” value in series [3] (summary of Table 2) is given as “low or negligible binding affinity”. In addition, in series [4] (summary of Table 2), the “binding affinity for α1 adrenoreceptor (in words)” value is listed as “low or negligible binding affinity”. The “binding affinity for histamine H1 receptor (in words)” value in series [5] (summary of Table 2) is given as “low or negligible binding affinity”. Besides, in [6], the “changes in mean weight, lipids, and prolactin from baseline” value is on record as “no adverse changes”. The “total PANSS and Brief Psychiatric Rating Scale (BPRS) scores” value in [7] is “gradual and sustained improvement”. Besides, the “mean change in weight and BMI as compared to other treatments” value in [8] (short-term (6-week) study, LOCF endpoint, patients with schizophrenia) is reported as “minimal increases”. Further, in [8] (short-term and long-term (6 and 12 months) studies), the “disturbances in lipids or glycemic control” value is “not associated with disturbances in lipids or glycemic control”. Besides, the “changes in weight, lipids, and measures of glucemic control” value in series [9] is listed as “Minimal changes”. Moreover, in series [9], the “discontinuation rates due to adverse events” value is listed as 6%. For the same compound, the “most frequently reported adverse events” value in series [9] is “nausea, headache, somnolence, and tremor”. In series [10], the “reported affinity for 5-HT1A receptor” value is on record as “high affinity; also recorded: moderate affinity”. For the same compound, the “reported affinity for 5-HT2A receptor” value in [11] was “high affinity”.
